Patent US8877769B2, “Heteroaryl-substituted urea modulators of fatty acid amide hydrolase” (Janssen Pharmaceutica NV, priority 2008, dated 2014)

What was measured:
Rat FAAH = molecular target: T1, Rat FAAH (Rattus norvegicus, UniProt P97612); assay: Assay Method 2: FAAH assay, 3H-anandamide hydrolysis in cell homogenate; assay type: biochemical; settings: average of results obtained, > value = solubility limit or highest concentration tested
T1 construct: expressed in transfected cells
T1 sequence (P97612 1-579): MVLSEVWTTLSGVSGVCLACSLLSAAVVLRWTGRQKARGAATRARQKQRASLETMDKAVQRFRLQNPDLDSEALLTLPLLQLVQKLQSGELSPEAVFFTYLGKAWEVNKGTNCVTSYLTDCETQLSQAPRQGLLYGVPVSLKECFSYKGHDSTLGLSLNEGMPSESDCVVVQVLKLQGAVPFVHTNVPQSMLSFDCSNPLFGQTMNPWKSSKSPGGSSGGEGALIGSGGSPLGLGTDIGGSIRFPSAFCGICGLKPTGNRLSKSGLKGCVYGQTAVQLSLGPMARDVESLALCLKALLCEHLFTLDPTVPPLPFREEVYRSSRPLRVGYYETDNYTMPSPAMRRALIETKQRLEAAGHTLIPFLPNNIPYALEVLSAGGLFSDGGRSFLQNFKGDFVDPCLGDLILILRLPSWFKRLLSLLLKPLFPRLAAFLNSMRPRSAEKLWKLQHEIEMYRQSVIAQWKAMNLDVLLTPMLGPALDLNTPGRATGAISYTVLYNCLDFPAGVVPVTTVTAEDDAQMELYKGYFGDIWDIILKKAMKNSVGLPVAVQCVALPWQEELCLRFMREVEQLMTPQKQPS
Procedure: A. Transfection of Cells with Rat FAAH
The assay mixture consisted of 50 μL of the cell homogenate, 10 μL of the test compound, and 40 μL of anandamide [1-^3H-ethanolamine] (^3H-AEA, Perkin-Elmer, 10.3 Ci/mmol), which was added last, for a final tracer concentration of 80 nM. The reaction mixture was incubated at rt for 1 h. During the incubation, 96-well Multiscreen filter plates (catalog number MAFCNOB50; Millipore, Bedford, Mass., USA) were loaded with 25 μL of activated charcoal (Multiscreen column loader, catalog number MACL09625, Millipore) and washed once with 100 μL of MeOH. […] After the 1 h incubation, 60 μL of the reaction mixture were transferred to the charcoal plates, which were then assembled on top of the DYNEX plates using Centrifuge Alignment Frames (catalog number MACF09604, Millipore). The unbound labeled ethanolamine was centrifuged through to the bottom plate (5 min at 2000 rpm), which was preloaded with the scintillant, as described above. The plates were sealed and left at rt for 1 h before counting on a Hewlett Packard TopCount.

FAAH = molecular target: T2, FAAH (Homo sapiens, UniProt O00519); assay: Assay Method 1: FAAH assay, 3H-anandamide hydrolysis in cell homogenate
T2 sequence (O00519 1-579): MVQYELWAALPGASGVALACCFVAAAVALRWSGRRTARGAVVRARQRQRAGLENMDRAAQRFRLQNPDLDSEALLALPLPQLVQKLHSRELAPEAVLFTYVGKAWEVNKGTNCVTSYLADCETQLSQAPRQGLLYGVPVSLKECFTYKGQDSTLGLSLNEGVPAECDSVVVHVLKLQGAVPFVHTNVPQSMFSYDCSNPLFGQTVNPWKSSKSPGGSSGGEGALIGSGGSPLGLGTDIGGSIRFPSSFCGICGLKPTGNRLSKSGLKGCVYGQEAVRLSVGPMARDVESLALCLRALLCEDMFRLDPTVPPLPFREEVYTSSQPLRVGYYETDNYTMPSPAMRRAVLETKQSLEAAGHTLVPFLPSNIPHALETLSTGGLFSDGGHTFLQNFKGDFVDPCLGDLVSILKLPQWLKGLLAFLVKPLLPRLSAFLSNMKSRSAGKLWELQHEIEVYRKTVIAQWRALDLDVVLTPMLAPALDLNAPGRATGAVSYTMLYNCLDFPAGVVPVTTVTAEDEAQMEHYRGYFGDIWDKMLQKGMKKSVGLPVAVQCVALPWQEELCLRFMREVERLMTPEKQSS
Procedure: The assay mixture consisted of 50 μL of the cell homogenate, 10 μL of the test compound, and 40 μL of anandamide [1-^3H-ethanolamine] (^3H-AEA, Perkin-Elmer, 10.3 Ci/mmol), which was added last, for a final tracer concentration of 80 nM. The reaction mixture was incubated at rt for 1 h. During the incubation, 96-well Multiscreen filter plates (catalog number MAFCNOB50; Millipore, Bedford, Mass., USA) were loaded with 25 μL of activated charcoal (Multiscreen column loader, catalog number MACL09625, Millipore) and washed once with 100 μL of MeOH. […] After the 1 h incubation, 60 μL of the reaction mixture were transferred to the charcoal plates, which were then assembled on top of the DYNEX plates using Centrifuge Alignment Frames (catalog number MACF09604, Millipore). The unbound labeled ethanolamine was centrifuged through to the bottom plate (5 min at 2000 rpm), which was preloaded with the scintillant, as described above. The plates were sealed and left at rt for 1 h before counting on a Hewlett Packard TopCount. • Assay Method 2

| SMILES | IC50 (Rat FAAH) [nM] | IC50 (FAAH) [nM] |
| --- | --- | --- |
| O=C(Nc1noc2ncccc12)N1CCN(Cc2cccc(Oc3ccc(OC(F)(F)F)cc3)c2)CC1 [Example 37, 4-[3-(4-Trifluoromethoxy-phenoxy)-benzyl]-piperazine-1-carboxylic acid isoxazolo[5,4-b]pyridin-3-ylamide] | 100 | 200 |
| O=C(Nc1cnc2cc[nH]c2c1)N1CCN(Cc2ccc3c(c2)OC(F)(F)O3)CC1 [Example 45, 4-(2,2-Difluoro-benzo[1,3]dioxol-5-ylmethyl)-piperazine-1-carboxylic acid (1H-pyrrolo[3,2-b]pyridin-6-yl)-amide] | 230 | 230 |
| N#Cc1ccc(Oc2cccc(CN3CCN(C(=O)Nc4noc5ncccc45)CC3)c2)cc1 [Example 32, 4-[3-(4-Cyano-phenoxy)-benzyl]-piperazine-1-carboxylic acid isoxazolo[5,4-b]pyridin-3-ylamide] | 2300 | 300 |
| O=C(Nc1noc2ncccc12)N1CCN(Cc2ccc3c(c2)OCO3)CC1 [Example 7, 4-Benzo[1,3]dioxol-5-ylmethyl-piperazine-1-carboxylic acid isoxazolo[5,4-b]pyridin-3-ylamide] | > 10000 | > 10000 |
| O=C(Nc1noc2ncccc12)N1CCN(Cc2ccc3ccccc3c2)CC1 [Example 29, 4-Naphthalen-2-ylmethyl-piperazine-1-carboxylic acid isoxazolo[5,4-b]pyridin-3-ylamide] | – | 370 |
| O=C(Nc1noc2ncccc12)N1CCN(Cc2cccc(Oc3ccc(S(=O)(=O)C(F)(F)F)cc3)c2)CC1 [Example 22, 4-[3-(4-Trifluoromethanesulfonyl-phenoxy)-benzyl]-piperazine-1-carboxylic acid isoxazolo[5,4-b]pyridin-3-ylamide] | > 10000 | > 10000 |
| O=C(Nc1noc2ncccc12)N1CCN(Cc2ccc(Cl)c(Cl)c2)CC1 [Example 13, 4-(3,4-Dichloro-benzyl)-piperazine-1-carboxylic acid isoxazolo[5,4-b]pyridin-3-ylamide] | 3000 | 460 |
| O=C(NC1=NS(=O)(=O)c2ccccc21)N1CCN(Cc2cccc(Oc3ccc(Cl)cc3)c2)CC1 [Example 59, 4-[3-(4-Chloro-phenoxy)-benzyl]-piperazine-1-carboxylic acid (1,1-dioxo-1H-λ^6-benzo[d]isothiazol-3-yl)-amide] | 2000 | 2000 |
| O=C(Nc1cccc2cn[nH]c12)N1CCN(Cc2cccc(Oc3ccc(Cl)cc3)c2)CC1 [Example 48, 4-[3-(4-Chloro-phenoxy)-benzyl]-piperazine-1-carboxylic acid (1H-indazol-7-yl)-amide] | 3000 | – |
| Cc1nc2cc(NC(=O)N3CCN(Cc4cccc(Oc5ccc(Cl)cc5)c4)CC3)ccc2o1 [Example 63, 4-[3-(4-Chloro-phenoxy)-benzyl]-piperazine-1-carboxylic acid (2-methyl-benzooxazol-5-yl)-amide] | 120 | – |
| O=C(Nc1nc2ccccc2o1)N1CCN(Cc2cccc(Oc3ccc(Cl)cc3)c2)CC1 [Example 66, 4-[3-(4-Chloro-phenoxy)-benzyl]-piperazine-1-carboxylic acid benzooxazol-2-ylamide] | – | 880 |
| O=C(Nc1cccc2cn[nH]c12)N1CCN(Cc2ccc3c(c2)OC(F)(F)O3)CC1 [Example 49, 4-(2,2-Difluoro-benzo[1,3]dioxol-5-ylmethyl)-piperazine-1-carboxylic acid (1H-indazol-7-yl)-amide] | – | > 10000 |
| O=C(Nc1noc2ncccc12)N1CCN(Cc2ccc(Br)c(F)c2)CC1 [Example 6, 4-(4-Bromo-3-fluoro-benzyl)-piperazine-1-carboxylic acid isoxazolo[5,4-b]pyridin-3-ylamide] | > 10000 | – |
| O=C(Nc1cnc2ccccn12)N1CCN(Cc2ccc3c(c2)OC(F)(F)O3)CC1 [Example 58, 4-(2,2-Difluoro-benzo[1,3]dioxol-5-ylmethyl)-piperazine-1-carboxylic acid imidazo[1,2-a]pyridin-3-ylamide] | 2000 | – |
| O=C(Nc1ccn2ccnc2n1)N1CCN(Cc2cccc(Oc3ccc(Cl)cc3)c2)CC1 [Example 75, 4-[3-(4-Chloro-phenoxy)-benzyl]-piperazine-1-carboxylic acid imidazo[1,2-a]pyrimidin-7-ylamide] | 830 | – |
| O=C(Nc1ccc2nccn2c1)N1CCN(Cc2cccc(Oc3ccc(Cl)cc3)c2)CC1 [Example 50, 4-[3-(4-Chloro-phenoxy)-benzyl]-piperazine-1-carboxylic acid imidazo[1,2-a]pyridin-6-ylamide] | 1200 | – |
| O=C(Nc1cc2nccn2cn1)N1CCN(Cc2cccc(Oc3ccc(Cl)cc3)c2)CC1 [Example 74, 4-[3-(4-Chloro-phenoxy)-benzyl]-piperazine-1-carboxylic acid imidazo[1,2-c]pyrimidin-7-ylamide] | 500 | – |
| O=C(Nc1ccn2ccnc2c1)N1CCN(Cc2cccc(Oc3ccc(Cl)cc3)c2)CC1 [Example 72, 4-[3-(4-Chloro-phenoxy)-benzyl]-piperazine-1-carboxylic acid imidazo[1,2-a]pyridin-7-ylamide] | 660 | – |

Results, then the molecule that gave them:

| IC50 (Rat FAAH) [nM] | IC50 (FAAH) [nM] | SMILES |
| --- | --- | --- |
| 6 | – | O=C(Nc1cccc2nccn12)N1CCN(Cc2cccc(Oc3ccc(Cl)cc3)c2)CC1 [Example 69, 4-[3-(4-Chloro-phenoxy)-benzyl]-piperazine-1-carboxylic acid imidazo[1,2-a]pyridin-5-ylamide] |
| 22 | – | O=C(Nc1nocc1Cl)N1CCN(Cc2cccc(Oc3ccc(Cl)cc3)c2)CC1 [Example 85, 4-[3-(4-Chloro-phenoxy)-benzyl]-piperazine-1-carboxylic acid (4-chloro-isoxazol-3-yl)-amide] |
| 17 | – | O=C(Nc1noc2cccnc12)N1CCN(Cc2cccc(Oc3ccc(Cl)cc3)c2)CC1 [Example 41, 4-[3-(4-Chloro-phenoxy)-benzyl]-piperazine-1-carboxylic acid isoxazolo[4,5-b]pyridin-3-ylamide] |
| 40 | – | O=C(Nc1noc2ccncc12)N1CCN(Cc2cccc(Oc3ccc(Cl)cc3)c2)CC1 [Example 40, 4-[3-(4-Chloro-phenoxy)-benzyl]-piperazine-1-carboxylic acid isoxazolo[4,5-c]pyridin-3-ylamide] |
| 16 | – | O=C(Nc1cnc2cccnn12)N1CCN(Cc2cccc(Oc3ccc(Cl)cc3)c2)CC1 [Example 1, 4-[3-(4-Chloro-phenoxy)-benzyl]-piperazine-1-carboxylic acid imidazo[1,2-b]pyridazin-3-ylamide] |
| 7 | – | O=C(Nc1noc2ncccc12)N1CCN(Cc2cccc(Oc3ccc(Cl)cc3)c2)CC1 [Example 20, 4-[3-(4-Chloro-phenoxy)-benzyl]-piperazine-1-carboxylic acid isoxazolo[5,4-b]pyridin-3-ylamide] |
| 31 | – | O=C(Nc1ccnc2nccn12)N1CCN(Cc2cccc(Oc3ccc(Cl)cc3)c2)CC1 [Example 76, 4-[3-(4-Chloro-phenoxy)-benzyl]-piperazine-1-carboxylic acid imidazo[1,2-a]pyrimidin-5-ylamide] |
| 98 | – | O=C(Nc1cnc2ccccn12)N1CCN(Cc2cccc(Oc3ccc(Cl)cc3)c2)CC1 [Example 57, 4-[3-(4-Chloro-phenoxy)-benzyl]-piperazine-1-carboxylic acid imidazo[1,2-a]pyridin-3-ylamide] |
| 16 | – | O=C(Nc1cnc2[nH]ccc2c1)N1CCN(Cc2cccc(Oc3ccc(Cl)cc3)c2)CC1 [Example 60, 4-[3-(4-Chloro-phenoxy)-benzyl]-piperazine-1-carboxylic acid (1H-pyrrolo[2,3-b]pyridin-5-yl)-amide] |
